Data taken from patent US20190336498A1, “METHODS AND COMPOSITIONS FOR THE TREATMENT OF CUSHING'S SYNDROME USING 2S, 4R KETOCONAZOLE” (STRONGBRIDGE DUBLIN LIMITED, priority 2014, published 2019).

Key:
[1] = test system: cholesterol; conditions: vs the other enantiomer; cited from earlier work
[2] = test system: QTc interval; experiment: QTc interval prolongation; conditions: in vivo
Text: The potential risk of protracted, drug induced prolongation of the QTc interval on the ECG is the development of an arrhythmia called torsade de pointes. […] Subjects with CS may have greater than normal QTc intervals and treatment that reduces cortisol levels may result in reductions in QTc intervals.

[3] = Safety and tolerability in healthy volunteers and subjects with Type 2 Diabetes Mellitus; assay type: in vivo, human; conditions: 200 mg to 600 mg QD for up to 14 days and 150 mg to 450 mg for up to 4 months; healthy volunteers and T2DM subjects
[4] = target: 11-β-hydroxylase; conditions: comparison in words; cited from earlier work
[5] = test system: C-reactive protein (CRP); conditions: clinical study; cited from earlier work
[6] = target: T1, 14-α-demethylase (Rattus norvegicus, UniProt Q64654); conditions: comparison in words; cited from earlier work
T1 sequence (Q64654 1-503): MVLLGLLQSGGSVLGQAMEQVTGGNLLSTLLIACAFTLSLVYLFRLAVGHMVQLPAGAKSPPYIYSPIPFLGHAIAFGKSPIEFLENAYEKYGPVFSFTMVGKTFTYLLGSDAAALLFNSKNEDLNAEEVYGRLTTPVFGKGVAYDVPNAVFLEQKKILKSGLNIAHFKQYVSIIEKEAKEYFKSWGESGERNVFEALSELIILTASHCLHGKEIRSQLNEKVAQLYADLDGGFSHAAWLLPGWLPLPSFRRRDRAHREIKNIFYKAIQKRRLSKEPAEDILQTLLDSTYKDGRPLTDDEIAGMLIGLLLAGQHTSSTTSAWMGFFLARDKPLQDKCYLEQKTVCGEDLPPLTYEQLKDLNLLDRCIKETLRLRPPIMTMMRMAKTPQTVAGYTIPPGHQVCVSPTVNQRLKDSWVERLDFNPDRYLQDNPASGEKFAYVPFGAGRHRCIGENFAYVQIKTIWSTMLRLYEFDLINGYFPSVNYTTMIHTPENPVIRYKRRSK

[7] = test system: corticosterone; conditions: rats; vs the other enantiomers or racemic ketoconazole; cited from earlier work
[8] = Pharmacokinetics of the enantiomers in humans after oral administration of ketoconazole; assay type: in vivo; conditions: following oral administration of ketoconazole (racemic)
Text: Reduced hepatic exposure to the 2S,4R enantiomer may be of value in reducing the liver function abnormalities observed following administration of racemic ketoconazole.

[9] = test system: Cushing's syndrome; conditions: off-label, titrated to effect; cited from earlier work

Row | SMILES | reduction of cholesterol [1] | prolongation of QTc intervals [2] | safety and tolerability [3] | IC50 toward the key enzyme in cortisol synthesis (11-α-hydroxylase) compared with the other enantiomer [4] | IC50 toward the key enzyme in cortisol synthesis (11-β-hydroxylase) compared with the other enantiomer [4] | reduction in C-reactive protein (CRP) levels [5] | IC50 toward a key enzyme in cholesterol synthesis (14-α-demethylase) compared with the other enantiomer [6] | potency with respect to reducing corticosterone [7] | blood concentrations of the 2S,4R enantiomer exceed those of the 2R,4S enantiomer [8] | therapeutic success rate in CS [9]
1 | CC(=O)N1CCN(c2ccc(OC[C@@H]3CO[C@@](Cn4ccnc4)(c4ccc(Cl)cc4Cl)O3)cc2)CC1 (racemic) [2S,4R ketoconazole enantiomer] | appeared to reduce cholesterol more than the other enantiomer | capability to prolong QTc intervals in a dose (concentration) related manner | generally safe and well tolerated | significantly lower IC50 | significantly lower IC50 | dose response reduction | significantly lower IC50 | more potent | approximately 3 fold | –
2 | CC(=O)N1CCN(c2ccc(OCC3COC(Cn4ccnc4)(c4ccc(Cl)cc4Cl)O3)cc2)CC1 (racemic) [racemic ketoconazole, reference compound] | – | – | – | – | – | no reduction | – | – | – | 50-70%
